From PubChem BioAssay (NCI) come the findings set out here.

Among the test systems are KM12 colon; OVCAR-3 ovarian; COLO 205 colon; TK-10 renal; SNB-19 CNS; MOLT-4 leukemia; SN12C renal; K-562 leukemia; SF-268 CNS; MCF7 breast.
Test in all cases: inhibition of tumour cell growth, NCI panel, 48 h

“And” between values parts separate entries of the source, which are not always exact repeats. Equal values may be shown once.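 48-hour exposure; five concentrations; linearly interpolated endpoints. At the GI50, growth is halved. TGI denotes the concentration required for complete inhibition of growth.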 Some results are limits rather than exact numbers.

Turning to `N#C[S-].[La+3].c1ccc(-c2ccccn2)nc1.c1ccc(-c2ccccn2)nc1.c1ccc(-c2ccccn2)nc1`, the GI50 was 51 µM in the experiment on KM12 colon; 64.6 µM with OVCAR-3 ovarian; 45.5 µM in the experiment on COLO 205 colon; 15.7 µM in the experiment with TK-10 renal; 54.6 µM in the experiment with SNB-19 CNS; 10.5 µM in the experiment with MOLT-4 leukemia. For the same compound, the GI50 in the experiment on SN12C renal is 19.2 µM. Also, the TGI in the experiment with KM12 colon, in the experiment on OVCAR-3 ovarian, with COLO 205 colon, with TK-10 renal, with SNB-19 CNS and in the experiment on MOLT-4 leukemia was over 100 µM throughout. The compound further yielded a TGI with SN12C renal of over 100 µM.
In the case of `Clc1cc(N/N=C(\c2ccccc2)c2ccccn2)ncn1`, the TGI in the experiment on KM12 colon was over 100 µM; with OVCAR-3 ovarian, over 100 µM; in the experiment with K-562 leukemia, over 100 µM; with TK-10 renal it was over 100 µM; in the experiment on SNB-19 CNS, over 100 µM; with MOLT-4 leukemia, 3.48 µM. This compound also returned a TGI in the experiment on SF-268 CNS of over 100 µM.
Consider `Brc1ccc2[nH]c3c(C4=NCCC4)nccc3c2c1`, for which the TGI was over 100 µM with KM12 colon; over 100 µM in the experiment with OVCAR-3 ovarian; over 59.6 µM in the experiment with COLO 205 colon; over 41.9 µM in the experiment with K-562 leukemia; over 47.6 µM in the experiment with MCF7 breast; over 100 µM in the experiment on SNB-19 CNS. Further, the TGI in the experiment on MOLT-4 leukemia is over 30.4 µM; in the experiment with SF-268 CNS, over 70.4 µM; in the experiment on SN12C renal it was over 91.6 µM.
Consider `CC1OC(OC2C(O)CC(OC3C(O)CC(OC4CCC5(C)C(CCC6C5CCC5(C)C(C7=CC(=O)OC7)C(O)CC65O)C4)OC3C)OC2C)CC(O)C1O` (stereo not given), for which the TGI is 0.497 µM in the experiment on OVCAR-3 ovarian; 0.844 µM in the experiment with COLO 205 colon; over 100 µM with K-562 leukemia; 0.787 µM with TK-10 renal; 3.49 µM with SNB-19 CNS; 0.607 µM in the experiment with SF-268 CNS.
Turning to `Cc1ccc(S(=O)(=O)OC[C@@]2(C)CC[C@]3(C)CC[C@]4(C)C(=C3C2)C=C[C@@H]2[C@@]3(C)CCCNC(C)(C)[C@@H]3CC[C@]24C)cc1`, the GI50 with KM12 colon is 1.86 µM; with TK-10 renal, 1.88 µM; with SF-268 CNS it was 1.95 µM. In addition, the TGI in the experiment with KM12 colon stood at 3.57 µM; with TK-10 renal it was 3.59 µM; in the experiment on SF-268 CNS, 4.12 µM.
Consider `CCOC(=O)c1ccc(N(CCOS(C)(=O)=O)CCOS(C)(=O)=O)cc1`, for which the TGI in the experiment on KM12 colon, in the experiment with OVCAR-3 ovarian, in the experiment with COLO 205 colon, in the experiment with K-562 leukemia, in the experiment on TK-10 renal and in the experiment on MCF7 breast was over 100 µM throughout. Moreover, the values for the TGI in the experiment on SNB-19 CNS, in the experiment with MOLT-4 leukemia and in the experiment on SF-268 CNS were over 100 µM, 48.1 µM and over 100 µM, respectively.
Consider `Oc1c(Br)cc2c(c1Br)-c1c(c(O)c3c4c1=NCCC=4C=N3)NCC2`, for which the TGI in the experiment with KM12 colon worked out at 27.2 µM; in the experiment with OVCAR-3 ovarian, 8.47 µM; in the experiment with COLO 205 colon, 11.7 µM; in the experiment with K-562 leukemia it was 40.9 µM; in the experiment with MCF7 breast it was 22.2 µM; in the experiment with SNB-19 CNS it was 35.7 µM. In addition, the TGI in the experiment on MOLT-4 leukemia was 9.79 µM; in the experiment on SF-268 CNS it was 23.2 µM; in the experiment on SN12C renal it was 29.3 µM.
As for `CCCCCCCCCCCC1N=C(N)N=C(N)N1c1cccc(Br)c1` (stereo not given), in the experiment on TK-10 renal, the GI50 was 1.56 µM and the TGI amounted to 2.94 µM. For the same compound, in the experiment on SF-268 CNS, the GI50 was 1.28 µM and the TGI worked out at 2.7 µM.
As for `O=c1cc(-c2cccc(OC(F)(F)F)c2)[nH]c2ccc(N3CCCC3)cc12`, the TGI was 0.00249 µM with KM12 colon; 0.000234 µM in the experiment with OVCAR-3 ovarian; 0.0204 µM and 0.0319 µM in the experiment on COLO 205 colon; 6.79 µM in the experiment with TK-10 renal; over 100 µM in the experiment with MCF7 breast; 11.9 µM in the experiment on SNB-19 CNS. The TGI with MOLT-4 leukemia was determined as 0.00157 µM; with SF-268 CNS, 19.1 µM; with SN12C renal, 55.9 µM. Further, the GI50 in the experiment with TK-10 renal is 0.0431 µM; in the experiment on MCF7 breast, 0.0385 µM.
Regarding `Cc1c2cc[n+](Cc3ccc(I)cc3)cc2c(C)c2c1[nH]c1ccccc12`, the TGI came out at 1.83 µM with KM12 colon; 3.72 µM in the experiment with OVCAR-3 ovarian; 6.16 µM in the experiment with COLO 205 colon; 10.7 µM in the experiment with K-562 leukemia; 3.06 µM with MCF7 breast; 9.55 µM in the experiment on SNB-19 CNS. In addition, the results for the TGI with MOLT-4 leukemia, in the experiment with SF-268 CNS and in the experiment on SN12C renal were 1.65 µM, 7.18 µM and over 25 µM, respectively.
On to `[CH3][Sn]([CH3])([CH3])[S]C(=S)N1CCOCC1`, for which the GI50 with KM12 colon was 2.11 µM; with OVCAR-3 ovarian, 0.331 µM; with COLO 205 colon, 0.0786 µM; in the experiment on K-562 leukemia, 0.36 µM; with MCF7 breast, 0.0342 µM; in the experiment on MOLT-4 leukemia it was 0.135 µM. For the same compound, the GI50 in the experiment with SF-268 CNS was 3.65 µM; with SN12C renal, 7.55 µM. The TGI in the experiment on KM12 colon is 11.1 µM; with OVCAR-3 ovarian, 1.32 µM; in the experiment on COLO 205 colon, 0.432 µM; in the experiment with K-562 leukemia, 5.84 µM; in the experiment with MCF7 breast it was 0.619 µM; in the experiment on MOLT-4 leukemia it was 4.05 µM. The TGI in the experiment on SF-268 CNS and in the experiment on SN12C renal was over 100 µM throughout.
On to `O=C(Nc1cccc(-n2ccc3c(NC(=O)c4ccccc4)ncnc32)c1)Nc1ccc(Cl)c(C(F)(F)F)c1`, for which the GI50 in the experiment with KM12 colon was 1.95 µM; in the experiment with OVCAR-3 ovarian, 2.62 µM; with COLO 205 colon, 2.67 µM; with K-562 leukemia, 1.61 µM; in the experiment with TK-10 renal, 2.14 µM; in the experiment with MCF7 breast, 1.49 µM. In addition, the GI50 with SNB-19 CNS is 4.41 µM; with MOLT-4 leukemia, 1.77 µM; in the experiment on SF-268 CNS it was 3.69 µM; in the experiment on SN12C renal it was 3.09 µM. For the same compound, the TGI in the experiment with KM12 colon worked out at 8.16 µM; with OVCAR-3 ovarian it was 8.9 µM; with COLO 205 colon it was 8.36 µM; with K-562 leukemia, 50 µM; in the experiment with TK-10 renal, 7.75 µM; with MCF7 breast it was 6.14 µM. For the same compound, the TGI came out at 10.8 µM with SNB-19 CNS, 12.7 µM with MOLT-4 leukemia, 10.5 µM in the experiment on SF-268 CNS and 9.86 µM in the experiment on SN12C renal.
